The text below walks through data of EP2316926B1, “Enantioselective production of alpha-hydroxy carbonyl compounds” (priority 2009, dated 2011).

Where “and” joins values, the source holds several entries; their conditions need not be identical. Equal values may be shown once. Read-outs that look alike come from different tables or passages of the source.

Common to all, as to assay type: biochemical
Assay [1] has as its target T1, Gox0644 (Gluconobacter oxydans, UniProt Q5FT75). The assay can be described thus: NADPH-dependent α-ketocarbonyl reductase activity assay (rate of decrease of NADPH at 340 nm). As to conditions: for Specific Activity (U/mg)*: Table 4, cofactor NADPH, U/mg = µmol/mg·min; for Gox0644 U/mg*: Table 3, 10 mM substrate, 40 mM K-phosphate buffer pH 7.0, 0.05 mM NAD(P)H, 30 °C, U/mg = µmol x min^-1 x mg protein^-1; for reduction by Gox0644: result in words. How it is done:
Reactions were induced by addition of enzyme or substrate. One unit was defined as the amount of enzyme activity catalyzing the conversion of 1 µmol of pyridine nucleotide per min at 30 °C. NMR Analysis of Biotransformation Products: Biotransformations were extracted with equal volumes of CDCl3. and ^13C NMR spectra were recorded on a Bruker Avance 300 DPX spectrometer operating at 300 MHz for ^1H NMR and at 75 MHz for ^13C NMR, respectively.
Reactions were induced by addition of enzyme or substrate. One unit of activity was defined as the amount of enzyme activity catalyzing the conversion of 1 µmol of pyridine nucleotide per min at 30 °C.
The standard reaction mixture (1 ml) for the reduction reactions of substrates contained 10 mM substrate, 40 mM potassium phosphate buffer (K-phosphate buffer) pH 7.0, 0.05 mM NAD(P)H, and the enzyme unless otherwise noted. Reactions were induced by addition of enzyme or substrate. One unit of activity was defined as the amount of enzyme activity catalyzing the conversion of 1 µmol of pyridine nucleotide per min at 30 °C. […] Table 3: Enzymatic activities with α-diketones, α-ketoaldehydes and α-ketoesters

Another assay addresses T2, Gox1615 (Gluconobacter oxydans, UniProt Q5FQJ0).
T2 sequence (Q5FQJ0 1-332): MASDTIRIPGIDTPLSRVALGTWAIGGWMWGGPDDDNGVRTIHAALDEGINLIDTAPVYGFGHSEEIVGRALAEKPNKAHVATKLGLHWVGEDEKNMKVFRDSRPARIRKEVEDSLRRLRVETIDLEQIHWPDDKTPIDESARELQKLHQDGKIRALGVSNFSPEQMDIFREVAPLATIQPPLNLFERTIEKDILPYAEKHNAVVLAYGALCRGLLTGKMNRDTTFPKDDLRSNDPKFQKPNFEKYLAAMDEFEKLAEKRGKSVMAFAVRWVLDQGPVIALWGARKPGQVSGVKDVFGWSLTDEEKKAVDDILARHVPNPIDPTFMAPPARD
Described as above. As to conditions: for Specific Activity (U/mg)*: Table 5, cofactor NADPH, U/mg = µmol/mg·min; for Gox1615 U/mg*: Table 3, 10 mM substrate, 40 mM K-phosphate buffer pH 7.0, 0.05 mM NAD(P)H, 30 °C, U/mg = µmol x min^-1 x mg protein^-1. Here is the method: Measurement of enzyme activity: NADPH-dependent α-ketocarbonyl reductases were assayed by a routine method used for NAD(P)-linked enzymes by recording the rate of decrease of NADPH at 340 nm (ε = 6.22 mM^-1 x cm^-1)) with substrates at 30 °C. The reaction mixture (1 ml) for reduction of α-ketocarbonyl substrates contained 10 mM substrate, 40 mM potassium phosphate buffer pH 7.0, 0.025 mM NAD(P)H and the enzyme. Reactions were induced by addition of enzyme or substrate. One unit was defined as the amount of enzyme activity catalyzing the conversion of 1 µmol of pyridine nucleotide per min at 30 °C. NMR Analysis of Biotransformation Products: Biotransformations were extracted with equal volumes of CDCl3. and ^13C NMR spectra were recorded on a Bruker Avance 300 DPX spectrometer operating at 300 MHz for ^1H NMR and at 75 MHz for ^13C NMR, respectively. Spectra were processed using Bruker TonSpin 1.3 for Windows software and calibrated to the residual solvent peak of CDCl3 (δH = 7.26 / δC = 77.0).
NADPH-dependent α-ketocarbonyl reductases were assayed by a routine method used for NAD(P)-linked enzymes by recording the rate of decrease of NADPH at 340 nm (ε = 6.22 mM^-1.cm^-1) with substrates at 30 °C. The reaction mixture (1 ml) for reduction of α-ketocarbonyl substrates contained 10 mM substrate, 40 mM potassium phosphate buffer pH 7.0, 0.025 mM NADPH, and the enzyme. Reactions were induced by addition of enzyme or substrate. One unit of activity was defined as the amount of enzyme activity catalyzing the conversion of 1 µmol of pyridine nucleotide per min at 30 °C.
Purified NAD(P)-dependent oxidoreductases were assayed at 30 °C by a routine method used for NAD(P)-linked enzymes by recording the rate of decrease of NAD(P)H at 340 nm (ε = 6.22 mM^-1˙cm^-1) with substrates capable of reduction reactions. The standard reaction mixture (1 ml) for the reduction reactions of substrates contained 10 mM substrate, 40 mM potassium phosphate buffer (K-phosphate buffer) pH 7.0, 0.05 mM NAD(P)H, and the enzyme unless otherwise noted. Reactions were induced by addition of enzyme or substrate. One unit of activity was defined as the amount of enzyme activity catalyzing the conversion of 1 µmol of pyridine nucleotide per min at 30 °C. Measurement of the protein content was performed by the method of Bradford (Bradford M.M., Anal. Biochem. 72:248-254 (1976)). Table 3: Enzymatic activities with α-diketones, α-ketoaldehydes and α-ketoesters

The target of a further assay is T3, Gox1122 (Gluconobacter oxydans, UniProt Q5FRV6).
T3 sequence (Q5FRV6 1-463): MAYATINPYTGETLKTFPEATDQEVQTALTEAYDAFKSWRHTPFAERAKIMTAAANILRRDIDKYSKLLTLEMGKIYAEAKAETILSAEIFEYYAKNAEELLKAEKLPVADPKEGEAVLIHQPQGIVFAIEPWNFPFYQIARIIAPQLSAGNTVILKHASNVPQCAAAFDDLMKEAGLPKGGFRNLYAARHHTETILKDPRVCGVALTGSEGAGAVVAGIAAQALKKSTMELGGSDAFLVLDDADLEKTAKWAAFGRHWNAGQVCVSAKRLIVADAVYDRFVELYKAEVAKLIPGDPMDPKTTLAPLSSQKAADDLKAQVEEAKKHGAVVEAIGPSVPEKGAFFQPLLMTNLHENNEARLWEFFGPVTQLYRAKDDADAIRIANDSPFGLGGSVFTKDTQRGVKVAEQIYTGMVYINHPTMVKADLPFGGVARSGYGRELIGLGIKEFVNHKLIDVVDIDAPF
The assay can be described thus: Aldehyde dehydrogenase activity and kinetic constants. How it is done: The enzyme is used in a combined enzymatic reaction between the NADPH-dependent reductases (see above) that form α-hydroxy carbonyl compounds.
Determination of pH and temperature optima and enzyme kinetics: The optimum pH for enzyme activities was determined by a modified method of Salusjärvi, T. et al., Appl. Microbiol. Biotechnol. 65:306-314 (2004) using the following buffer system (50 mM final concentration each): sodium acetate pH 4.5 - 6.5, potassium phosphate pH 6.5 - 8.0, Tris-HCl pH 8.0 - 10. Temperature optima for the biocatalysts were determined under standard reaction conditions at temperatures ranging from 20 - 80 °C. The Michaelis constant (Km) for the proteins was determined from purified enzyme by Lineweaver-Burk plots. Assays were performed at optimum pH for each enzyme and at 30 °C using the best substrate and a targeted substrate. The Km for each substrate was calculated using concentrations of 0.0025 to 10 mM, and the Km NAD(P)H and NAD(P) was calculated using concentrations of 0.01 to 0.5 mM
2.9 Kinetic parameters of the keto carbonyl reductases: Kinetic constants were determined from purified enzyme by Lineweaver-Burk plots. The Km and Vmax values for the substrates were calculated using concentrations of 0.025 to 10 mM. […] 8.

The target of assay [2] is T1, Gox0644. The experiment in a line: Acetaldehyde tolerance test. The source says:
The products derived from the α-diketone and α-ketoaldehyde substrate reactions were generated according to the cofactor regeneration protocol. This method overcomes the dependence of the enzymes on reduced cofactor by coupling the substrate reactions of Gox0644 and Gox1615, with the cofactor NADP reduction reaction based on the acetaldehyde oxidoreductase Gox1122 using acetaldehyde. […] In both the reactions with phenylglyoxal and 2,3-pentanedione, Gox0644 activity remained similar to the control reaction consisting of a reaction without acetaldehyde (Tab. 9/10). […] In the reaction with 2,3-pentanedione there was a slight decrease of about 20% from the control, however, the activity levels were still very high at 50.2 U/mg. […] Table 9: Gox0644 acetaldehyde tolerance tests with phenylglyoxal

Take `CC(=O)C(C)=O` [2,3-butanedione]: the “Specific Activity (U/mg)*” value on Gox0644 [1] is on record as 60.0 U/mg; on Gox1615 it was 6.0 U/mg.

Regarding `CCCC(=O)C(C)=O` [2,3-hexanedione], the “Gox0644 U/mg*” value on Gox0644 [1] was 50.1 U/mg. Also, on Gox1615, the “Gox1615 U/mg*” value amounted to 6.5 U/mg and the “Specific Activity (U/mg)*” value is listed as 6.5 U/mg.

On to `O=C(O)C(=O)[C@@H](O)[C@H](O)C(=O)CO` [2,5-diketogluconate], for which the “reduction by Gox0644” value at Gox0644 [1] is “reduced”.

For `CCC(=O)C(=O)O` [2-oxo butyric acid], the “reduction by Gox0644” value at Gox0644 [1] is listed as “not reduced”.

With `CCC(=O)C(=O)CC` [3,4-hexanedione], the “Gox0644 U/mg*” value at Gox0644 [1] is 7.3 U/mg. At Gox1615, the “Gox1615 U/mg*” value is reported as 2.0 U/mg and the “Specific Activity (U/mg)*” value came to 2.0 U/mg.

For the compound `NC(=O)c1ccc[n+]([C@@H]2O[C@H](COP(=O)(O)OP(=O)(O)OC[C@H]3O[C@@H](n4cnc5c(N)ncnc54)[C@H](OP(=O)(O)O)[C@@H]3O)[C@@H](O)[C@H]2O)c1` [NADP], the Km – broadly, the concentration of substrate that gives half-maximal velocity – at Gox1122 (cofactor NADP, read-out: apparent Km value) came to 73 µM.

As to `CC=O` [acetaldehyde], the Gox0644 activity at Gox0644 [2] (substrate 2,3-pentanedione, 10mM acetaldehyde, control without acetaldehyde 65.7 U/mg) was 67.9 U/mg; at Gox0644 [2] (substrate 2,3-pentanedione, 30mM acetaldehyde, control without acetaldehyde 65.7 U/mg), 59.5 U/mg; at Gox0644 [2] (substrate 2,3-pentanedione, 50mM acetaldehyde, control without acetaldehyde 65.7 U/mg), 50.2 U/mg and 50.1 U/mg; at Gox0644 [2] (substrate phenylglyoxal, 10mM acetaldehyde, control without acetaldehyde 38.5 U/mg), 29.6 U/mg; on Gox0644 [2] (substrate phenylglyoxal, 30mM acetaldehyde, control without acetaldehyde 38.5 U/mg), 37.1 U/mg; on Gox0644 [2] (substrate phenylglyoxal, 50mM acetaldehyde, control without acetaldehyde 38.5 U/mg), 39.3 U/mg. Also, the Gox0644 activity on Gox0644 [2] (substrate phenylglyoxal, 100mM acetaldehyde, control without acetaldehyde 38.5 U/mg) was found to be 31.2 U/mg. Moreover, on Gox0644 [2] (substrate phenylglyoxal, 100 mM of acetaldehyde, versus control, read-out: decrease in activity), the inhibition at 100000 µM is at most 20%. The Vmax on Gox1122 (40 mM KPB at optimal pH and 30 °C) is 196 µmol/min x mg. Also, the Km is 200 µM on Gox1122 (40 mM KPB at optimal pH and 30 °C, read-out: Km); 255 µM at Gox1122 (several concentrations of the aldehyde from 0.0025 to 10 mM, read-out: Km value). Also, on Gox1122 (fixed 0.5 mM NADP, acetaldehyde as the varied substrate), the “apparent Vmax value” came to 196 U/mg protein.

With `CC(=O)O` [acetic acid], on Gox1122 (using NADPH, pH range of 4-10), the reverse reduction reaction result is “No reverse reduction reaction”.

Consider `CC(=O)C(C)O` (stereo not shown) [acetoin], for which the “reduction by Gox0644” value on Gox0644 [1] was “not reduced”.

On to `CC(C)=O` [acetone], for which, at Gox0644 [1], the “reduction by Gox0644” value is reported as “not reduced”.

Turning to `CC(=O)CC(C)=O` [acetylacetone], the “reduction by Gox0644” value on Gox0644 [1] is “not reduced”.

As for `O=C(C(=O)c1ccccc1)c1ccccc1` [benzil], on Gox0644 [1], the “Specific Activity (U/mg)*” value is listed as 14.0 U/mg.

Turning to `CCOC(=O)C(C)=O` [ethyl pyruvate], the “Gox0644 U/mg*” value at Gox0644 [1] was 92.8 U/mg. The same compound returned an activity at Gox0644 [1] (substrates showing the highest activities) of 93 U/mg protein. In addition, at Gox1615, the “Gox1615 U/mg*” value is 1.2 U/mg and the “Specific Activity (U/mg)*” value is listed as 1.2 U/mg.

`O=CC=O` [glyoxal]: the results for the “Specific Activity (U/mg)*” value at Gox0644 [1] and at Gox1615 were 1.1 U/mg and 5 U/mg, respectively.

For `CC(=O)C(=O)OCCC(C)C` [isoamyl pyruvate], the “Gox0644 U/mg*” value at Gox0644 [1] amounted to 63.1 U/mg. Moreover, on Gox1615, the “Gox1615 U/mg*” value amounted to 4.7 U/mg and the “Specific Activity (U/mg)*” value was 4.7 U/mg.
